# Measured values: patent publication US7294189B2, “Wax emulsion preservative compositions and method of manufacture” (Hexion Specialty Chemicals, Inc., priority 2002, dated 2007)
# Entries after “also recorded” stand apart in the source; their conditions may differ.
# Experiments:
# mold cultures = assay: ASTM D3273 four week mold resistance test of gypsum product made with wax emulsion containing thiabendazole; conditions: 0.2% thiabendazole post-added to wax emulsion; closed chamber with potting soil and mold cultures, about 90° F., relative humidity 95% to 98%; first weeks of the test
# Experimental: A wax emulsion formulation was prepared with the following components: G Wax (a paraffin wax) 33%, Montan wax 3.3%, alkyl phenol 0.5%, Disal 0.5%, potassium hydroxide 0.75%, ammonium hepta molybdonate 0.01%, starch 0.09%, polyfon H (lignosulfonic acid, sodium salt) 0.5%, water 61.35%. To this wax emulsion was post-added 0.2% thiabendazole, commercially available from Supreme Chemical of Cumming, Ga. under the trade designation MC-2. The wax emulsion was used to prepare a gypsum product. The resulting gypsum product was tested according to ASTM D3273. During this four week test, a sample of the subject material, such as a gypsum board, is placed in a closed chamber along with potting soil and mold cultures at a constant temperature of about 90° F. (32.2° C.) and relative humidity of 95% to 98%. The condition of the test sample is monitored weekly to determine the extent, if any, of mold growth.
# biological growth = assay: Biological growth on particle board coupons (urea-formaldehyde binder) made with test emulsions, placed in various environments; conditions: emulsions with 1% or 2% thiabendazole by weight of the wax; emulsion 0.4% solids by weight of furnish; soaked and non-soaked coupons; constant humidity, rooftop, warehouse, laboratory; after six weeks (control coupons showed growth after first week)
# Experimental: In other tests, test emulsions as described above was used to prepare sample particle board coupons comprising a urea-formaldehyde binder. Some test emulsions contained 1% thiabendazole, others 2%, by weight of the wax in the emulsions. The emulsion was added to the furnish from which the coupons were formed in an amount of 0.4% solids, by weight of the furnish. Some of the coupons were soaked in water for twenty-four hours before testing. For the test, various soaked and non-soaked coupons were placed in various environments including constant humidity conditions (72° F. (22.2° C.), 72% relative humidity (RH)), outdoor rooftop environmental conditions (exposed to air but shielded from direct impingement by precipitation); and indoors in an uncontrolled warehouse and in a laboratory environment, beside a water bath. Control coupons prepared and treated similarly were also place in these environments.
compound,measurement,setting,value
"c1ccc2[nH]c(-c3cscn3)nc2c1 [thiabendazole, 2-(4′-thiazolyl) benzimidazole]",biological (mold) growth on gypsum product,mold cultures,effective in inhibiting the growth of biological agents on gypsum board; also recorded: no biological growth
same,visible biological growth on particle board coupons,biological growth,none of the sample coupons made with thiabendazole had any visible growth
